Results from patent US8686035B2, “Composition and method for promoting hair growth” (R-Tech Ueno, Ltd., priority 2003, dated 2014).
Where “and” joins values, the source holds several entries; their conditions need not be identical. Identical values can stand only once. Entries after “also recorded” stand apart in the source; their conditions may differ.

Tests used:
Type in all cases: in vivo
C3H/HeN mice [1] = assay: Hair growth after topical application to clipped dorsal skin, macroscopic score (Example 1); design: key to Hair Growth Score: −: no hair growth observed; ±: hair growth≦10% of the clipped area; +: hair growth 10-40% of the clipped area; ++: hair growth 40-80% of the clipped area; +++: hair growth ≧80% of the clipped area; conditions: for Hair Growth Score / animals on which hair growth was observed: topical once daily; for Hair Growth Score: individual animals; for animals on which hair growth was observed: 0.1%, 30 days treatment period, 3 animals per group
Protocol: (§1) Eight-weeks-old male C3H/HeN mice were used. The hair on the back was clipped by electric clipper so that the hair in the clipped area was removed as much as possible. Three days after the clipping, mice without visible scratches were selected and used in this study. Each group consisted of 3 animals. After group assignment, the groups were housed separately in aluminum cages (3 animals/cage, 180 mm W×300 mm D×130 mm H; Nippon Cage, Ltd., Japan).
(§2) Each test compound was dissolved in 70% (w/w) aqueous ethanol. Each dose formulation of test compound was evenly applied topically once daily (100 μL per mouse) to the clipped dorsal skin area (approximately 2×4 cm), except for Saturday and Sunday, for 30 days. The control group received an equal amount of the vehicle in the same manner.
Macroscopic observations of the hair growth were performed 14, 16, 18, 21, 23, 25, 28 and 30 days after the start of the treatment. Hair growth was scored according to the scale below:
− no hair growth observed
± hair growth≦10% of the clipped area
+ hair growth 10-40% of the clipped area
++ hair growth 40-80% of the clipped area
+++ hair growth ≧80% of the clipped area

C3H/HeN mice [2] = assay: Thickness of grown-up hair (Example 3); conditions: 0.1% treated area, hairs collected 31 days after start of treatment of Example 1, n=3
Protocol: 31 days after the start of the treatment conducted in Example 1, grown-up hairs in the treated area and hairs in the untreated area (i.e. non clipped area) were collected, respectively. Enlarged photomicrographs of the collected hairs were taken. Thickness of the randomly selected each ten hairs were measured and calculated the average.

C3H/HeN mice [3] = assay: Hair growth after topical application to clipped dorsal skin, macroscopic score (Example 2); design: key to Hair Growth Score: −: no hair growth observed; ±: hair growth≦10% of the clipped area; +: hair growth 10-40% of the clipped area; ++: hair growth 40-80% of the clipped area; +++: hair growth ≧80% of the clipped area; conditions: topical once daily; for Hair Growth Score: 0.1% in 75% aqueous ethanol, individual animals
Protocol: as §1
as §2, with “Test compound” for “Each test compound”, “in 75%” for “in 70% (w/w)”, “ethanol. The” for “ethanol. Each dose”, “compound (compound E)” for “compound”, “for 23” for “for 30”
Macroscopic observations of the hair growth were performed 14, 16, 18, 21 and 23 days after the start of the treatment. Hair growth was scored according to the scale shown as above. In the 0.1% compound E-treated group, hair growth was observed on 3 out of 3 animals.

[4] = 0.1% in 70% (w/w) aqueous ethanol, day 14 of treatment
[5] = 0.1% in 70% (w/w) aqueous ethanol, day 16 of treatment
[6] = 0.1% in 70% (w/w) aqueous ethanol, day 18 of treatment
[7] = 0.1% in 70% (w/w) aqueous ethanol, day 21 of treatment
[8] = 0.1% in 70% (w/w) aqueous ethanol, day 23 of treatment
[9] = 0.1% in 70% (w/w) aqueous ethanol, day 25 of treatment
[10] = 0.1% in 70% (w/w) aqueous ethanol, day 28 of treatment
[11] = 0.1% in 70% (w/w) aqueous ethanol, day 30 of treatment

Structure (SMILES)	Hair Growth Score (C3H/HeN mice [1]; [4])	Hair Growth Score (C3H/HeN mice [1]; [5])	Hair Growth Score (C3H/HeN mice [1]; [6])	Hair Growth Score (C3H/HeN mice [1]; [7])	Hair Growth Score (C3H/HeN mice [1]; [8])	Hair Growth Score (C3H/HeN mice [1]; [9])	Hair Growth Score (C3H/HeN mice [1]; [10])	Hair Growth Score (C3H/HeN mice [1]; [11])	Hair thickness, μm mean ± SE (C3H/HeN mice [2]) [μm]	animals on which hair growth was observed (C3H/HeN mice [1])	also measured
CC(C)OC(=O)CCC/C=C\CC1C(O)CC(O)C1CCC1(CCc2ccccc2)OCCO1 (stereo not drawn) [Compound B, 13,14-dihydro-15,15-ethylenedioxy-17-phenyl-18,19,20-trinor-PGF2α isopropyl ester]	−	−	± (hair growth≦10% of the clipped area) and − (2×)	± (hair growth≦10% of the clipped area)	+ (hair growth 10-40% of the clipped area)	++ (hair growth 40-80% of the clipped area); also recorded: + (hair growth 10-40% of the clipped area)	++ (hair growth 40-80% of the clipped area)	++ (hair growth 40-80% of the clipped area)	33.3 ± 0.7		Hair Growth Score (C3H/HeN mice [1]; 0.1% in 70% (w/w) aqueous ethanol, day 30 of treatment, listed as compound B): ++ (hair growth 40-80% of the clipped area)
CCCCCCCC1(CCC2C(O)CC(O)C2C/C=C\CCCC(=O)OC(C)C)OCCCO1 (stereo not drawn) [Compound C, 13,14-dihydro-15,15-trimethylenedioxy-20-ethyl-PGF2α isopropyl ester]	−	−	− (2×) and ± (hair growth≦10% of the clipped area)	− (2×) and ± (hair growth≦10% of the clipped area)	− (2×) and ± (hair growth≦10% of the clipped area)	− (2×) and + (hair growth 10-40% of the clipped area)	− (2×) and + (hair growth 10-40% of the clipped area)	− (2×) and + (hair growth 10-40% of the clipped area)		1 out of 3	
CCCCCCCC(CCC1C(O)CC(O)C1C/C=C\CCCC(=O)OC(C)C)(OC)OC (stereo not drawn) [Compound D, 13,14-dihydro-15,15-dimethoxy-20-ethyl-PGF2α isopropyl ester]	−	− (2×) and ± (hair growth≦10% of the clipped area)	− (2×) and ± (hair growth≦10% of the clipped area)	− (2×) and + (hair growth 10-40% of the clipped area)	− (2×) and + (hair growth 10-40% of the clipped area)	− (2×) and + (hair growth 10-40% of the clipped area)	− and ++ (hair growth 40-80% of the clipped area) and ± (hair growth≦10% of the clipped area)	− and ++ (hair growth 40-80% of the clipped area) and ± (hair growth≦10% of the clipped area)		2 out of 3	
CCCCCCCC1(CCC2C(O)CC(O)C2C/C=C\CCCC(=O)OC(C)C)OCCO1 (stereo not drawn) [Compound A, 13,14-dihydro-15,15-ethylenedioxy-20-ethyl-PGF2α isopropyl ester]	−	± (hair growth≦10% of the clipped area) (2×) and −	± (hair growth≦10% of the clipped area)	+ (hair growth 10-40% of the clipped area)	++ (hair growth 40-80% of the clipped area)	++ (hair growth 40-80% of the clipped area)	+++ (hair growth ≧80% of the clipped area)	+++ (hair growth ≧80% of the clipped area)	34.1 ± 1.6		hair growth, dose dependence (C3H/HeN mice [1]; 0.01% and 0.1% treated groups): dose-dependent hair growth; Hair Growth Score (C3H/HeN mice [1]; 0.01% in 70% (w/w) aqueous ethanol, day 14 of treatment): −; Hair Growth Score (C3H/HeN mice [1]; 0.01% in 70% (w/w) aqueous ethanol, day 16 of treatment): −; Hair Growth Score (C3H/HeN mice [1]; 0.01% in 70% (w/w) aqueous ethanol, day 18 of treatment): − (2×) and ± (hair growth≦10% of the clipped area); Hair Growth Score (C3H/HeN mice [1]; 0.01% in 70% (w/w) aqueous ethanol, day 21 of treatment): − (2×) and ± (hair growth≦10% of the clipped area); Hair Growth Score (C3H/HeN mice [1]; 0.01% in 70% (w/w) aqueous ethanol, day 23 of treatment): − (2×) and ± (hair growth≦10% of the clipped area); Hair Growth Score (C3H/HeN mice [1]; 0.01% in 70% (w/w) aqueous ethanol, day 25 of treatment): − and + (hair growth 10-40% of the clipped area) (2×); Hair Growth Score (C3H/HeN mice [1]; 0.01% in 70% (w/w) aqueous ethanol, day 28 of treatment): + (hair growth 10-40% of the clipped area); also recorded: ++ (hair growth 40-80% of the clipped area); Hair Growth Score (C3H/HeN mice [1]; 0.01% in 70% (w/w) aqueous ethanol, day 30 of treatment): + (hair growth 10-40% of the clipped area); also recorded: ++ (hair growth 40-80% of the clipped area)
CCCCCCCC1(CCC2C(O)CC(O)C2C/C=C\CCCC(=O)OCC)OCCO1 (stereo not drawn) [Compound E, 13,14-dihydro-15,15-ethylenedioxy-20-ethyl-PGF2α ethyl ester]											Hair Growth Score (C3H/HeN mice [3]; day 14 of treatment): −; Hair Growth Score (C3H/HeN mice [3]; day 16 of treatment): −; Hair Growth Score (C3H/HeN mice [3]; day 18 of treatment): ± (hair growth≦10% of the clipped area) (2×) and −; Hair Growth Score (C3H/HeN mice [3]; day 21 of treatment): ++ (hair growth 40-80% of the clipped area); also recorded: + (hair growth 10-40% of the clipped area); Hair Growth Score (C3H/HeN mice [3]; day 23 of treatment): + (hair growth 10-40% of the clipped area); also recorded: ++ (hair growth 40-80% of the clipped area); animals on which hair growth was observed (C3H/HeN mice [3]; 0.1%, 23 days treatment period, 3 animals per group): 3 out of 3
